PMC7369637, “Inhibition of Resistance-Refractory P. falciparum Kinase PKG Delivers Prophylactic, Blood Stage, and Transmission-Blocking Antiplasmodial Activity” (Cell Chemical Biology, 2020)

How the values were obtained:
Assay in all cases: Chemoproteomics in human mixed tissue extracts
Assay type in all cases: binding
Details in all cases: read-out: Kdapp
[1] = biological target: T1, testis-associated actin remodeling kinase 2 (Homo sapiens, UniProt Q96S53)
T1 construct: human cell/tissue protein extract (a mixture of HEK-293, K-562, Hep G2 , and placental cells); endogenous in cells; host or cells: mixture of HEK-293, K-562, Hep G2 and placenta
Description: (§1) Human extracts were prepared as described ([Bantscheff et al., 2011]). Briefly, frozen cell pellets were homogenized in lysis buffer (50 mM Tris-HCl, 0.8% Igepal-CA630, 5% glycerol, 150 mM NaCl, 1.5 mM MgCl2, 25 mM sodium fluoride, 1 mM sodium vanadate, 1 mM DTT, pH 7.5). One cOmplete EDTA-free protease inhibitor tablet (Roche) was added per 25 ml. Samples were dispersed using a Dounce homogenizer, rotated for 30 min at 4°C, and centrifuged at 20,000g for 10 min at 4°C. Supernatants were then recentrifuged at 145,000g for 1 h at 4°C. Protein concentrations were determined using a Bradford assay (BioRad). Aliquots were snap frozen in liquid nitrogen and stored at −80°C.
(§2) Kinobeads were prepared by immobilizing Bis-(III) indolyl-maleimide, purvalanol B, staurosporine and CZC8004, and the analogs of PD173955, sunitinib and vandetanib on NHS-activated Sepharose 4 beads (Amersham) ([Bantscheff et al., 2007]). […] The chemoproteomic affinity-capturing experiments were performed as previously described ([Bantscheff et al., 2011]). Briefly, beads were washed and equilibrated in lysis buffer (50 mM Tris-HCl, pH 7.4, 0.4 % Igepal-CA630, 1.5 mM MgCl2, 5 % Glycerol, 150 mM NaCl, 25 mM NaF, 1 mM Na3VO4, 1 mM DTT, and one cOmplete EDTA-free protease inhibitor tablet (Roche) per 25 mL). The beads were incubated at 4°C for 1 h with either 0.1 ml (0.3 mg) Pf blood stage extract or 0.5 mL (2.5 mg) human cell/tissue protein extract (a mixture of HEK-293, K-562, Hep G2 , and placental cells), which was pre-incubated with compound or DMSO (vehicle control). 10 samples were measured in parallel (TMT 10-plex ([Werner et al., 2014])) to generate values for the affinity of the beads to the bound proteins (“depletion” values, 4 samples) and to generate IC50 values (6 samples) in a single experiment. Apparent dissociation constants were determined after accounting for protein depletion by the beads ([Bantscheff et al., 2011]). Beads were transferred to Filter plates (Durapore PVDF membrane, Merck Millipore), washed with lysis buffer, and eluted with SDS sample buffer.
(§3) Proteins were digested according to a modified single pot solid-phase sample preparation (SP3) protocol ([Hughes et al., 2014]). Peptides were labeled with isobaric mass tags (Thermo Fisher Scientific, Waltham, MA) using 10-plex TMT reagents, enabling relative quantification of 10 conditions in a single experiment ([Werner et al., 2014]). The labeling reactions and LC-MS/MS measurements using Q Exactive Orbitrap or Orbitrap Fusion Lumos mass spectrometers (Thermo Fisher Scientific) were performed as described elsewhere ([Sridharan et al., 2019]). Mascot 2.4 (Matrix Science, Boston, MA) was used for protein identification by using a 10 parts per million mass tolerance for peptide precursors and 20 mD (HCD) mass tolerance for fragment ions. To create the fasta file for mascot searching, all proteins corresponding to the taxonomy ‘Plasmodium falciparum (isolate 3D7)’ were downloaded from Uniprot (release 20170621) and supplemented with common contaminant protein sequences of bovine serum albumin, porcine trypsin and mouse, rat, sheep and dog keratins. To assess the false discovery rate (FDR), “decoy” proteins (reverse of all protein sequences) were created and added to the database, resulting in a database containing a total of 14266 protein sequences, with 50% forward and 50% reverse. For peptide and protein identification of human proteins see ([Sridharan et al., 2019]). Unless stated otherwise, we accepted protein identifications as follows: (i) For single-spectrum to sequence assignments, we required this assignment to be the best match and a minimum Mascot score of 31 and a 10× difference of this assignment over the next best assignment. Based on these criteria, the decoy search results indicated <1% false discovery rate (FDR). (ii) For multiple spectrum to sequence assignments and using the same parameters, the decoy search results indicated <0.1% FDR. […]

[2] = biological target: T2, protein kinase N3 (Homo sapiens, UniProt Q6P5Z2)
T2 construct: human cell/tissue protein extract (a mixture of HEK-293, K-562, Hep G2 , and placental cells); endogenous in cells; host or cells: mixture of HEK-293, K-562, Hep G2 and placenta
Description: as §1, §2, §3

[3] = biological target: T3, nemo-like kinase (Homo sapiens, UniProt Q9UBE8)
T3 construct: human cell/tissue protein extract (a mixture of HEK-293, K-562, Hep G2 , and placental cells); endogenous in cells; host or cells: mixture of HEK-293, K-562, Hep G2 and placenta
Description: as §1, §2, §3

[4] = biological target: T4, transforming growth factor β receptor 2 (Homo sapiens, UniProt P37173)
T4 construct: human cell/tissue protein extract (a mixture of HEK-293, K-562, Hep G2 , and placental cells); endogenous in cells; host or cells: mixture of HEK-293, K-562, Hep G2 and placenta
Description: as §1, §2, §3

[5] = biological target: T5, receptor interacting serine/threonine kinase 2 (Homo sapiens, UniProt O43353)
T5 construct: human cell/tissue protein extract (a mixture of HEK-293, K-562, Hep G2 , and placental cells); endogenous in cells; host or cells: mixture of HEK-293, K-562, Hep G2 and placenta
Description: as §1, §2, §3

[6] = biological target: T6, casein kinase 1δ (Homo sapiens, UniProt P48730)
T6 construct: human cell/tissue protein extract (a mixture of HEK-293, K-562, Hep G2 , and placental cells); endogenous in cells; host or cells: mixture of HEK-293, K-562, Hep G2 and placenta
Description: as §1, §2, §3

[7] = biological target: T7, transforming growth factor β receptor 1 (Homo sapiens, UniProt P36897)
T7 construct: human cell/tissue protein extract (a mixture of HEK-293, K-562, Hep G2 , and placental cells); endogenous in cells; host or cells: mixture of HEK-293, K-562, Hep G2 and placenta
Description: as §1, §2, §3

T1 sequence (Q96S53 whole entry): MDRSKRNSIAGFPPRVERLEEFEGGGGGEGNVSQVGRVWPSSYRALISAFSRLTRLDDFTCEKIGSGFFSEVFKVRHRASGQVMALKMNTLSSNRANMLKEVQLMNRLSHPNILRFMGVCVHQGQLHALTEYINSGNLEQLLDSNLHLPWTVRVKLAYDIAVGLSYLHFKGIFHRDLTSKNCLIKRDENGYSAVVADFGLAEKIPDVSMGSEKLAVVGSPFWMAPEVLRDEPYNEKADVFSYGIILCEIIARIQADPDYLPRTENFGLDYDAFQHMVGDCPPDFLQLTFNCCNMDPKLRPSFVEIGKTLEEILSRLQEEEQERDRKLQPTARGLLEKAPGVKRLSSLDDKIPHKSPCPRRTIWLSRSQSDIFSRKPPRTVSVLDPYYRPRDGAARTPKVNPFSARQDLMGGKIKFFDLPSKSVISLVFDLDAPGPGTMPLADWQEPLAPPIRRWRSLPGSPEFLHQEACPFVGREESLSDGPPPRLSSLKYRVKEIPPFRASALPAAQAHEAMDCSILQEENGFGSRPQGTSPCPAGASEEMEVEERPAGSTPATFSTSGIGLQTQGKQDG
T2 sequence (Q6P5Z2 whole entry): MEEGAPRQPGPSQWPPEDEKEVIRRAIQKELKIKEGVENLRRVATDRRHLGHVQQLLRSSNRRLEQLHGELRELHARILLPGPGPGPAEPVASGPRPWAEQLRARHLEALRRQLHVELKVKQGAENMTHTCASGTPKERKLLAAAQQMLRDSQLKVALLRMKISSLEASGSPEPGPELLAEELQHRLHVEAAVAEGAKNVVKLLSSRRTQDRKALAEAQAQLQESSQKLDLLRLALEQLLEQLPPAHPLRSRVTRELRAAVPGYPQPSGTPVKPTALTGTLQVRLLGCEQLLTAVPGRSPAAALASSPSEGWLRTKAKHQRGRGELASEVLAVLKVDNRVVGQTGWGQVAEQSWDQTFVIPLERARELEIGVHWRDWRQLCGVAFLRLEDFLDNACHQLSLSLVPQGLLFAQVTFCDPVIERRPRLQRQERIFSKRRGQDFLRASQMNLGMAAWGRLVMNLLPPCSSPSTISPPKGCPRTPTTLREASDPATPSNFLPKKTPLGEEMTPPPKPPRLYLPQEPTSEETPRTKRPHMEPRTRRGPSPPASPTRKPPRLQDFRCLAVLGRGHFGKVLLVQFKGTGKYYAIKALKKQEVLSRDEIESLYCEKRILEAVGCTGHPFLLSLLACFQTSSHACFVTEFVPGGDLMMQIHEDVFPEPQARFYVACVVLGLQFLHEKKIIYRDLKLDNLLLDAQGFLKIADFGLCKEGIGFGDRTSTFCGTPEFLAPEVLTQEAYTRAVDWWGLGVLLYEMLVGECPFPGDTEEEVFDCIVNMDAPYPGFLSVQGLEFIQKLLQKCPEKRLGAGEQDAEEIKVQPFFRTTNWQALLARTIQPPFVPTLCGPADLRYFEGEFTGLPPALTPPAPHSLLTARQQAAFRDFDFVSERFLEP
T5 sequence (O43353 whole entry): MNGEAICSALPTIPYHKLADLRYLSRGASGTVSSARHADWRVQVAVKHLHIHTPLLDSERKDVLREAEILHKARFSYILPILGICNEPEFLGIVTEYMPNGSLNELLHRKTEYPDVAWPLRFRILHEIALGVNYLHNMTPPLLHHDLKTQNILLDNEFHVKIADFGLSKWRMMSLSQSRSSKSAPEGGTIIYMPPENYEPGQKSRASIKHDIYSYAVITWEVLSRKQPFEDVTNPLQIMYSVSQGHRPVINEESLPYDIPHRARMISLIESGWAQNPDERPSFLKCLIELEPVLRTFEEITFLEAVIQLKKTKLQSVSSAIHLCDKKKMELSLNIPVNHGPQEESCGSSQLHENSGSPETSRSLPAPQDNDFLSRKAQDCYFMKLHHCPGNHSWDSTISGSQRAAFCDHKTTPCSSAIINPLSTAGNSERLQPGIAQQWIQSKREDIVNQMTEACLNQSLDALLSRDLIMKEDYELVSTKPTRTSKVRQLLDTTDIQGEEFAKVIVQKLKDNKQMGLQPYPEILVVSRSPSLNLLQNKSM
T7 sequence (P36897 34-503): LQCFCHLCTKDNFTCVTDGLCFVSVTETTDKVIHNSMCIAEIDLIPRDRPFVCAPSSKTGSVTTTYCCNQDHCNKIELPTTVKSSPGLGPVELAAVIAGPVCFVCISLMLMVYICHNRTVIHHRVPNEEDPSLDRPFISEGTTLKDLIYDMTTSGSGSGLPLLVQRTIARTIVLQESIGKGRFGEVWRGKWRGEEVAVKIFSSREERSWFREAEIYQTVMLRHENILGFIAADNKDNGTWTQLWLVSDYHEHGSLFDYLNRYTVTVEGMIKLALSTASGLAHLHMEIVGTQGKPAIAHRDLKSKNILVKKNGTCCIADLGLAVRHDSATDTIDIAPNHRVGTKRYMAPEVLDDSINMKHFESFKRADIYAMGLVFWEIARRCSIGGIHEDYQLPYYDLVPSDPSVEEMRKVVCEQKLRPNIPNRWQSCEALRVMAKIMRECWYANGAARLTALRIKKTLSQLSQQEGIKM
T4 sequence (P37173 23-567): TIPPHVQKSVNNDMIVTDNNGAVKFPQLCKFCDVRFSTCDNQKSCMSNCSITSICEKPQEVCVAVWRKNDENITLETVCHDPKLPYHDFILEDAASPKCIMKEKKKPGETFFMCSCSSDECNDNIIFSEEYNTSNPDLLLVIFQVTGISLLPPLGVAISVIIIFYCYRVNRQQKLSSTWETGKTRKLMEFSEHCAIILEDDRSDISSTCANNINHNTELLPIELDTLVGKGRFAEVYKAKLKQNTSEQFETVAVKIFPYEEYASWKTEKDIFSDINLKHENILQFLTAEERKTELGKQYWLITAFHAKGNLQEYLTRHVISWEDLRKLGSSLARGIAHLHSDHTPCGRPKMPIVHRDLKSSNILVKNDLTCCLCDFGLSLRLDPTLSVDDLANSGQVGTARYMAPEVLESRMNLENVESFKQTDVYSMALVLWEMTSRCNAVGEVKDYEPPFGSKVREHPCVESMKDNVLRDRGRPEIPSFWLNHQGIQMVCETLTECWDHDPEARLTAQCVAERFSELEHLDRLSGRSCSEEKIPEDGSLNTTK
T3 sequence (Q9UBE8 whole entry): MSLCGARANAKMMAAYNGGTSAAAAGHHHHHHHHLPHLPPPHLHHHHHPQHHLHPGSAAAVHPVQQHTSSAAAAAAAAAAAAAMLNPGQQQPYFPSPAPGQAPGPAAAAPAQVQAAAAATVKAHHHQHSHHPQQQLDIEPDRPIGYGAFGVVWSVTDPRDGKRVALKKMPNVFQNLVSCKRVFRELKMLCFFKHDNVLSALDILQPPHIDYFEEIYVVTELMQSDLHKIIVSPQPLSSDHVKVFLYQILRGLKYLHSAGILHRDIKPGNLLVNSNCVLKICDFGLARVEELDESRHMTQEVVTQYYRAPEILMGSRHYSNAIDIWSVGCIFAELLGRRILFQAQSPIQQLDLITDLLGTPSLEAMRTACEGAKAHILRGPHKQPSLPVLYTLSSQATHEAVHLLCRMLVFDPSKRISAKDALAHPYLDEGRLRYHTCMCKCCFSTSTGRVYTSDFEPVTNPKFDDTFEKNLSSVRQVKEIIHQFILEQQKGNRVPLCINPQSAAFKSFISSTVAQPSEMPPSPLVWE
T6 sequence (P48730 whole entry): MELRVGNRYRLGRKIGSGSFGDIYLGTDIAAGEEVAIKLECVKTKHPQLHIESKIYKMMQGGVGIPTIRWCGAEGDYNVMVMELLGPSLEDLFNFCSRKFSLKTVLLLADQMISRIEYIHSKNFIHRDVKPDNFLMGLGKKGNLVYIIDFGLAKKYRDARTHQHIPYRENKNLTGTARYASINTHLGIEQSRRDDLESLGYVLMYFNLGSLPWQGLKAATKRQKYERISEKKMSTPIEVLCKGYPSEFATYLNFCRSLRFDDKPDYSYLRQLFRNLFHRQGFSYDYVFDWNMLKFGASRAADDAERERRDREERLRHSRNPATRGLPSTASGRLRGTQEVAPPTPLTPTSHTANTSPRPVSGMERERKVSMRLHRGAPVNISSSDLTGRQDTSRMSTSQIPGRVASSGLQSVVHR

**Q.** How did the Kd [1] turn out when `CC(C)(CN)c1nc(-c2ccc(Cl)c(O)c2)c(-c2ccncc2)[nH]1` [MMV030084] was run?
**A.** Its Kd is 25 nM.

**Q.** And the Kd [2]?
**A.** The Kd was 8.5 nM.

**Q.** What about the Kd [3] of the same molecule?
**A.** Its Kd is 20 nM.

**Q.** What about the Kd [4] of the same molecule?
**A.** The Kd was 35 nM.

**Q.** What about the Kd [5] of the same molecule?
**A.** Its Kd is 4.5 nM.

**Q.** What about the Kd [6] of the same molecule?
**A.** The Kd was 95 nM.

**Q.** And the Kd [7]?
**A.** Its Kd is 20 nM.
